Results as given in patent publication US8541455B2, “Derivatives of 2-pyridin-2-yl-pyrazol-3(2H)-one, preparation and therapeutic use thereof as HIF activators” (Sanofi, priority 2008, dated 2013).
Where a name gives a salt, the structure may show the parent alone.

## CCN(c1ccccc1)S(=O)(=O)c1ccc(-n2[nH]c(C)c(Cc3ccc(N(C)C)cc3)c2=O)nc1 [Compound 50]
  melting point: 182 °C

## CCOC(=O)Cc1[nH]n(-c2ccc(S(=O)(=O)N(CC)c3ccccc3)cn2)c(=O)c1Cc1ccccc1 [Compound 106, ethyl (4-benzyl-1-{5-[ethyl(phenyl)sulfamoyl]pyridin-2-yl}-5-oxo-2,5-dihydro-1H-pyrazol-3-yl)acetate]
  melting point: 156 °C

## Cc1[nH]n(-c2ccccn2)c(=O)c1Cc1ccc(C(F)(F)F)cc1 [Compound 186]
  melting point: 94 °C

## Cc1[nH]n(-c2ccc(S(=O)(=O)N(C)C)cn2)c(=O)c1Cc1cccnc1 [Compound 66, N,N-dimethyl-6-[3-methyl-5-oxo-4-(pyridin-3-ylmethyl)-2,5-dihydro-1H-pyrazol-1-yl]pyridine-3-sulfonamide]
  melting point: 212 °C

## CCN(c1ccccc1)S(=O)(=O)c1ccc(-n2[nH]c(C)c(CC3CCN(C)CC3)c2=O)nc1 (as salt: HCl) [Compound 94]
  melting point: 150 °C

## O=c1c(Cc2ccccc2)c[nH]n1-c1ccc(S(=O)(=O)N(CC(O)CO)c2ccccc2)cn1 (stereo not shown) [Compound 143, 6-(4-benzyl-5-oxo-2,5-dihydro-1H-pyrazol-1-yl)-N-(2,3-dihydroxypropyl)-N-phenylpyridine-3-sulfonamide]
  melting point: 174 °C

## Cc1[nH]n(-c2ccccn2)c(=O)c1Cc1ccccc1C(F)(F)F [Compound 188]
  melting point: 106 °C

## CN(C1CCCC1)S(=O)(=O)c1ccc(-n2[nH]cc(C(CC(=O)NCC(F)(F)F)c3ccccc3)c2=O)nc1 (stereo not shown) [Compound 146, 3-(2-{5-[cyclopentyl(methyl)sulfamoyl]pyridin-2-yl}-3-oxo-2,3-dihydro-1H-pyrazol-4-yl)-3-phenyl-N-(2,2,2-trifluoroethyl)propanamide]
  melting point: 80 °C

## CC(C)(C)NS(=O)(=O)c1ccc(-n2[nH]cc(Cc3ccncc3)c2=O)nc1 [Compound 150]
  melting point: 226 °C

## O=c1c(Cc2ccccc2)c[nH]n1-c1ccc(S(=O)(=O)N(C[C@@H](O)CO)C2CCCC2)cn1 [Compound 142, 6-(4-benzyl-5-oxo-2,5-dihydro-1H-pyrazol-1-yl)-N-cyclopentyl-N-[(2R)-2,3-dihydroxypropyl]pyridine-3-sulfonamide]
  melting point: 184 °C

## CCN(c1ccccc1)S(=O)(=O)c1ccc(-n2[nH]c(C)c(Cc3ccccc3OC)c2=O)nc1 [Compound 57]
  melting point: 108 °C

## COc1cccc(Cc2c(C)[nH]n(-c3ccccn3)c2=O)c1 [Compound 193]
  melting point: 120 °C

## CCC(C)(C)NS(=O)(=O)c1ccc(-n2[nH]cc(Cc3cccnc3)c2=O)nc1 (as salt: HCl) [Compound 137]
  melting point: 126 °C

## CCN(c1ccccc1)S(=O)(=O)c1ccc(-n2[nH]c(C)c(Cc3ccc(OCCOC)cc3)c2=O)nc1 [Compound 61]
  melting point: 176 °C

## CCN(c1ccccc1)S(=O)(=O)c1ccc(-n2[nH]c(C)c(Cc3ccccc3C(=O)OC)c2=O)nc1 [Compound 116]
  melting point: 146 °C

## CCN(c1ccccc1)S(=O)(=O)c1ccc(-n2[nH]cc(Cc3cccnc3)c2=O)nc1 (as salt: HCl) [Compound 99]
  melting point: 142 °C

## Cc1[nH]n(-c2ccc(S(=O)(=O)c3ccccc3)cn2)c(=O)c1Cc1cccnc1 [Compound 197, 5-methyl-2-[5-(phenylsulfonyl)pyridin-2-yl]-4-(pyridin-3-ylmethyl)-1,2-dihydro-3H-pyrazol-3-one]
  melting point: 176 °C

## Cc1[nH]n(-c2ccc(S(=O)(=O)N(C)C3CC3)cn2)c(=O)c1Cc1cccnc1 (as salt: HCl) [Compound 95]
  melting point: 138 °C

## Cc1[nH]n(-c2ccccn2)c(=O)c1Cc1ccc(C#N)cc1 [Compound 173]
  melting point: 154 °C

## CN(C1CCCC1)S(=O)(=O)c1ccc(-n2[nH]cc(Cc3ccncc3)c2=O)nc1 (as salt: HCl) [Compound 120]
  melting point: 130 °C

## CCC(C)(C)N(C)S(=O)(=O)c1ccc(-n2[nH]cc(Cc3cccnc3)c2=O)nc1 [Compound 145]
  melting point: 162 °C

## COC(=O)CC(c1ccccc1)c1c[nH]n(-c2ccc(S(=O)(=O)N(C)C3CCCC3)cn2)c1=O (stereo not shown) [Compound 114]
  melting point: 80 °C

## Cc1[nH]n(-c2ccccn2)c(=O)c1Cc1ccccc1C#N [Compound 172]
  melting point: 157 °C

## COc1ccccc1Cc1c(C)[nH]n(-c2ccccn2)c1=O [Compound 192]
  melting point: 254 °C

## CN([C@@H]1CC[C@H](CO)C1)S(=O)(=O)c1ccc(-n2[nH]cc(Cc3ccccc3)c2=O)nc1 [Compound 138, 6-(4-benzyl-5-oxo-2,5-dihydro-1H-pyrazol-1-yl)-N-[(1R,3S)-3-(hydroxymethyl)cyclopentyl]-N-methylpyridine-3-sulfonamide]
  melting point: 108 °C

## CCN(c1ccccc1)S(=O)(=O)c1ccc(-n2[nH]cc(Cc3cncc(OC)c3)c2=O)nc1.Cl
  melting point: 136 °C

## CN1CCC(N(C)S(=O)(=O)c2ccc(-n3[nH]cc(Cc4ccccc4)c3=O)nc2)C1 (stereo not shown) (as salt: HCl) [Compound 139]
  melting point: 130 °C

## COc1cncc(Cc2c(C)[nH]n(-c3ccc(S(=O)(=O)NC(C)(C)C)cn3)c2=O)c1 (as salt: HCl) [Compound 96]
  melting point: 150 °C
